In assay [1] the test system is A2780 ovarian cells. Put plainly: A2780 ovarian cell proliferation assay in lipid reduced medium, with palmitate (MTT). The format is cell-based. To be noted: Homo sapiens, A2780, 96 h; read-out: pIC50 A2780 Ovarian Cell, With Palmitate (converted). The method, boiled down:
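In this palmitate-supplemented format, compound dilutions (30 μM down to 0.01 μM) are added to cells in lipid-reduced serum with 25 μM palmitate, 0.2% fatty-acid-free BSA and 0.25% ethanol. After four days (96 h) MTT absorbance at 544 nm is recorded and fitted by minimum sum of squares.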

For assay [2], the system named is A2780 ovarian cells. The assay is described as follows: A2780 ovarian cell proliferation assay in lipid reduced medium, without palmitate (MTT). The format is cell-based. The note with it: Homo sapiens, A2780, 96 h; read-out: pIC50 A2780 Ovarian Cell, Without Palmitate (converted).
For assay [3], the system named is LNCaP-Vancouver prostate cells. The assay is described as follows: In vitro LNCaP Vancouver prostate cell proliferation assay in lipid reduced medium. The format is cell-based. To be noted: read-out: pIC50 LNCaP_Vancouver prostate cell (converted).
Assay [4] concerns PC-3M-Luc-C6 prostate cells. The assay is described as follows: In vitro PC-3M-Luc-C6 prostate cell proliferation assay in lipid reduced medium. The note with it: 96 h, read-out: pIC50 PC-3M-Luc-C6 prostate cell (converted). It is filed as cell-based. The method, then:
PC-3M-Luc-C6 prostate cells were obtained from Xenogen Corporation. Cells were maintained in MEM supplemented with 10% Fetal Calf Serum (FCS, Hyclone), 2 mM glutamine, 1 mM sodium pyruvate, 1% BME vitamins (available from for example, Sigma Aldrich), 0.1 mM non Essential Amino Acid and 50 μg/ml Gentamicin. The cells were passaged twice a week.
The next day 10 μl test compound/DMSO diluted in medium was added (3E-5M, 1E-5M, 3E-6M, 1E-6M, 3E-7M, 1E-7M, 3E-8M, 1E-8M final concentration). Compounds were tested in duplicate. After 96 h incubation at 37° C., 5% CO2 25 μl ATP-glow mix was added. The plate was incubated for 30 min at 37° C. and luminescence was measured with the Envision.
Analysis: Determination of pIC50 Values
pIC50 values were calculated as follows.
where mLC and mHC are the means of the low control wells and high control wells on the plate, after manual exclusion of outliers. The relation between the % Controlmin values and concentration was fitted to a 4-parameter logistic curve using a non-linear least squares regression method to determine the pIC50 value. Outlying data points were excluded manually to get a correct fit. The pIC50 corresponds to −log 10(IC50), if the IC50 is expressed in molar units (http://www.ncbi.nlm.nih.gov/books/NBK91994). The IC50 parameter was always determined by non-linear regression, but one or more of the other parameters may have been held fixed on a relevant input value, such as 0 for the bottom values.

For assay [5], the target named is T1, hFASN enzyme (full length) (Homo sapiens, UniProt P49327).
T1 construct: 10 μL hFASN enzyme (full length, 300 ng, purified in house); made in house
Put plainly: Fatty Acid Synthase (FASN) inhibition scintillation proximity assay. It is filed as biochemical. To be noted: for inhibition at 10 µM: read-out: Human FASN % inhibition @ 10 μM, 10 μM test compound; for IC50: read-out: Human FASN pIC50 (converted). The method, boiled down:
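Scintillation proximity format: in-house full-length enzyme, 300 ng per well, pH 7.5 phosphate/DTT buffer, ³H-acetyl-CoA and malonyl-CoA. Emission counted on LEADseeker at 610 nm at least 24 h after stopping.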
(In general: Scintillation proximity formats need no separation of bound from free tracer.)

For assay [6], the target named is Fatty Acid Synthase Keto-reductase Domain (FASN KR) (Homo sapiens, UniProt P49327). The assay is described as follows: Fatty Acid Synthase keto-reductase domain (FASN KR) inhibition, NADPH oxidation at 340 nm.
Protocol: After 20 minutes incubation at room temperature the plate was measured again (T2).
The decrease in absorbance was calculated as (Absorbance before incubation T1)−(Absorbance following incubation T2).
A plot of Controlmin versus test compound concentration was fitted to a 4-parameter logistic curve using a non-linear least squares regression method.

16 molecules from patent US10077261B2, “Imidazolin-5-one derivative useful as FASN inhibitors for the treatment of cancer” (Janssen Pharmaceutica NV, priority 2012, dated 2018) can be followed below.

What is called inhibition is the relative decrease from the control value, in per cent.

Chain of Fatty Acid Synthase Keto-reductase Domain (FASN KR) (P49327 whole entry, the tested form may be a part): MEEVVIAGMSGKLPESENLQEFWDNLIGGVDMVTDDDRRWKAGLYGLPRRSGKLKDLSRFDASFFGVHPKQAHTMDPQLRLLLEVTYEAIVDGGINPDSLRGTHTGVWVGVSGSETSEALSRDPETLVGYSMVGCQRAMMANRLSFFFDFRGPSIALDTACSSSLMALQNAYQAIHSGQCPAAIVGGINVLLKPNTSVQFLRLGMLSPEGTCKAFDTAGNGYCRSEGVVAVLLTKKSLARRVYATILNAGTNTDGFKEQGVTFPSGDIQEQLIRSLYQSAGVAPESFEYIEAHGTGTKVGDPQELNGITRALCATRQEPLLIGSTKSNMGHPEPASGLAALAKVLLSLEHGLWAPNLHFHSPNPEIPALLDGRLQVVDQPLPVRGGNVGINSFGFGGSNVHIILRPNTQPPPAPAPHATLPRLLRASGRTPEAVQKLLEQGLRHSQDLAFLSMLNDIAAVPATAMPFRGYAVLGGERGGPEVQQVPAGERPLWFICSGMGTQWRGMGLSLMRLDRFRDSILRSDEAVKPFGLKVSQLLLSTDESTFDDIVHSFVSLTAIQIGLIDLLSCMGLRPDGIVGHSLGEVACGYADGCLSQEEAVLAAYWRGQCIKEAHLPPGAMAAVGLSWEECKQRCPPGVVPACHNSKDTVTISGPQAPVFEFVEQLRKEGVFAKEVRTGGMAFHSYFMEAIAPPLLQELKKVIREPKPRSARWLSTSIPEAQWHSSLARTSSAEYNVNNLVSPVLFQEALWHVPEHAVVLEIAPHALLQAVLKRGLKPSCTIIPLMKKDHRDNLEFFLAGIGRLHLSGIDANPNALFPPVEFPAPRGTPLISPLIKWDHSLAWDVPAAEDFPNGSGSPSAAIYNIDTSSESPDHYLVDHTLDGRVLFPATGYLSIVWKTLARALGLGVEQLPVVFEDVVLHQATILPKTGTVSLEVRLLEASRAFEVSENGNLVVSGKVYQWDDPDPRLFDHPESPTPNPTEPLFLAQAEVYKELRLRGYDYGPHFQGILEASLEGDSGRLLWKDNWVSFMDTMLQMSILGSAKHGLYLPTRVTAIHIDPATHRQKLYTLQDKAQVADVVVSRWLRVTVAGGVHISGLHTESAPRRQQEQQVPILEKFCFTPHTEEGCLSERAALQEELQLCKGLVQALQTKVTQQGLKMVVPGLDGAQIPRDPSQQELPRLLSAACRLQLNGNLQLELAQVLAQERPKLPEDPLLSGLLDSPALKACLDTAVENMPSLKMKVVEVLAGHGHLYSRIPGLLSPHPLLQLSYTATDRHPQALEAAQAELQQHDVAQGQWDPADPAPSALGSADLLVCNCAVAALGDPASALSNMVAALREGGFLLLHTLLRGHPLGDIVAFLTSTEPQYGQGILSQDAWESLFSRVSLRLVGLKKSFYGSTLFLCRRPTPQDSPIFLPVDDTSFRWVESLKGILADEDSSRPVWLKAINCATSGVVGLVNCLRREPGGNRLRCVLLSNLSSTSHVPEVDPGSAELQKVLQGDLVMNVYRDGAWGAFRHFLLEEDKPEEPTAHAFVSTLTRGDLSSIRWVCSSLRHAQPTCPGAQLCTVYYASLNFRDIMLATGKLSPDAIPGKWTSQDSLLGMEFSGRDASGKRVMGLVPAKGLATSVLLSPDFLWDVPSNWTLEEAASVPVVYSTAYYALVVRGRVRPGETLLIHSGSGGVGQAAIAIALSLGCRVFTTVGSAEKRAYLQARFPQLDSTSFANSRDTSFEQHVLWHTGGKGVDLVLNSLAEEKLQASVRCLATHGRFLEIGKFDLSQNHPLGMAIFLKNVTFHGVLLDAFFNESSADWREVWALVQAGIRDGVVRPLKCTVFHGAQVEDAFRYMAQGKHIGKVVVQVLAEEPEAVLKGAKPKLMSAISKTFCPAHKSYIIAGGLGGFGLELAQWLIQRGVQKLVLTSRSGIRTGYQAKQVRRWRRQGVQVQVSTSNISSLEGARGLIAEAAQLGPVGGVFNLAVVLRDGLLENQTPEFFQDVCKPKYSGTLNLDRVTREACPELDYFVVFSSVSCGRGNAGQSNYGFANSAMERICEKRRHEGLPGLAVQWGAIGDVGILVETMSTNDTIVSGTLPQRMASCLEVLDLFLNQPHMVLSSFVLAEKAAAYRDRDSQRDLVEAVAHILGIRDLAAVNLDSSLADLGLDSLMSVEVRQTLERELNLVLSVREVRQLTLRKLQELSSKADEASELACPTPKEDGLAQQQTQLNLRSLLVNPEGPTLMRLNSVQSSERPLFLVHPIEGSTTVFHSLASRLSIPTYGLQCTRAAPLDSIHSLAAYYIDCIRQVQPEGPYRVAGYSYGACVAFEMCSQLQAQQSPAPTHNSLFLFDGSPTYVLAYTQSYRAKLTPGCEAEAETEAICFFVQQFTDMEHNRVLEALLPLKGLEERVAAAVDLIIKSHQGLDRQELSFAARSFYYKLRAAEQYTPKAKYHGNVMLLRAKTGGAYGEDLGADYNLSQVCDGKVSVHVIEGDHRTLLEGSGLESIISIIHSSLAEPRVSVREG
T1 sequence (P49327 whole entry): as the sequence (P49327 whole entry, the tested form may be a part) above

Consider `Cn1ncc2cc(-c3ccc(C4=NC5(CC5)C(=O)N4CC4CN(C(=O)C5CC5)C4)cc3)ccc21` [compound 39, 6-{[1-(Cyclopropylcarbonyl)azetidin-3-yl]methyl}-5-[4-(1-methyl-1H-indazol-5-yl)phenyl]-4,6-diazaspiro[2.4]hept-4-en-7-one], for which the IC50 in the assay on A2780 ovarian cells [1] was greater than 10 µM; with A2780 ovarian cells [2], 331 nM; in assay [3], 1050 nM; in assay [4], 151 nM.
In the same order, the values of `O=C(C1CC1)N1CC[C@@H](CN2C(=O)C3(CC3)N=C2c2ccc(-c3nc4ccccc4s3)cc2F)C1` [compound 252, (R)-5-(4-(benzo[d]thiazol-2-yl)-2-fluorophenyl)-6-((1-(cyclopropanecarbonyl)pyrrolidin-3-yl)methyl)-4,6-diazaspiro[2.4]hept-4-en-7-one] are greater than 10 µM, roughly 77.6 nM, 251 nM and 56.2 nM.
Regarding `Cc1cc(-c2ccc3c(cnn3C)c2)ccc1C1=NC2(CC2)C(=O)N1C[C@@H]1CCN(C(=O)C2CC2)C1` [compound 262, (R)-6-((1-(cyclopropanecarbonyl)pyrrolidin-3-yl)methyl)-5-(2-methyl-4-(1-methyl-1H-indazol-5-yl)phenyl)-4,6-diazaspiro[2.4]hept-4-en-7-one], the IC50 with A2780 ovarian cells [1] was 6.03 µM; in the assay with A2780 ovarian cells [2] it was 77.6 nM; in assay [3] it was 295 nM; in assay [4] it was roughly 117 nM.
Take `O=C(C1CC1)N1CC[C@@H](CN2C(=O)C3(CC3)N=C2c2ccc(-c3c[nH]c4ccccc34)cc2)C1` [compound 314, (R)-5-(4-(1H-indol-3-yl)phenyl)-6-((1-(cyclopropanecarbonyl)pyrrolidin-3-yl)methyl)-4,6-diazaspiro[2.4]hept-4-en-7-one]: the IC50 in assay [3] was 309 nM; in assay [4], 57.5 nM.
Regarding `Cn1cnc2cc(-c3ccc(C4=NC5(CC5)C(=O)N4CC4CN(C(=O)C5CC5)C4)cc3)ccc21` [compound 343, 6-((1-(cyclopropanecarbonyl)azetidin-3-yl)mehtyl)-5-(4-(1-methyl-1H-benzo[d]imidazol-5-yl)phenyl)-4,6-diazaspiro[2.4]hept-4-en-7-one], the inhibition at 10 µM in assay [5] was 98%. In addition, the values for the IC50 in assay [3] and in assay [4] were 240 nM and 81.3 nM, respectively.
Turning to `O=C(C1CC1)N1CC(CN2C(=O)C3(CC3)N=C2c2ccc(-c3ccc4ccccc4n3)cc2)C1` [compound 345, 6-((1-(cyclopropanecarbonyl)azetidin-3-yl)methyl)-5-(4-(quinolin-2-yl)phenyl)-4,6-diazaspiro[2.4]hept-4-en-7-one], the inhibition at 10 µM in assay [5] was determined as 99%. The IC50 in assay [3] was 1200 nM; in assay [4], 562 nM.
On to `O=C(C1CC1)N1CC(CN2C(=O)C3(CC3)N=C2c2ccc(-c3cccc4[nH]ncc34)c(F)c2)C1` [compound 443, 6-{[1-(Cyclopropylcarbonyl)azetidin-3-yl]methyl}-5-[3-fluoro-4-(1H-indazol-4-yl)phenyl]-4,6-diazaspiro[2.4]hept-4-en-7-one], for which the inhibition at 10 µM in assay [5] was determined as 88%. The IC50 in assay [5] was 912 nM; with A2780 ovarian cells [1], greater than 10 µM; in the assay on A2780 ovarian cells [2], 794 nM; in assay [4], 851 nM; in assay [6], 1050 nM.
As for `O=C(C1CC1)N1CC[C@@H](CN2C(=O)C3(CC3)N=C2c2ccc(-c3nc4ccccc4[nH]3)cc2)C1` [compound 497, 5-[4-(1H-Benzimidazol-2-yl)phenyl]-6-{[(3R)-1-(cyclopropylcarbonyl)pyrrolidin-3-yl]methyl}-4,6-diazaspiro[2.4]hept-4-en-7-one], the IC50 in assay [3] is 5370 nM; in assay [4], 479 nM.
Turning to `Cc1cc(-c2ccc3c(cnn3C)c2)ccc1C1=NC2(CC2)C(=O)N1CC1CN(C(=O)C(C)(C)CO)C1` [compound 546, 6-{[1-(3-Hydroxy-2,2-dimethylpropanoyl)azetidin-3-yl]methyl}-5-[2-methyl-4-(1-methyl-1H-indazol-5-yl)phenyl]-4,6-diazaspiro[2.4]hept-4-en-7-one], the inhibition at 10 µM in assay [5] came to 100%. Moreover, the IC50 in assay [5] is 204 nM; in the assay on A2780 ovarian cells [1] it was greater than 10 µM; in the assay on A2780 ovarian cells [2], roughly 195 nM; in assay [4], roughly 309 nM; in assay [6] it was 603 nM.
`Cc1cc(-c2ccc3cc(OC(C)C)ccc3c2)ccc1C1=NC2(CC2)C(=O)N1CC1CN(C(=O)C2(C)CC2)C1` [compound 581, 6-({1-[(1-Methylcyclopropyl)carbonyl]azetidin-3-yl}methyl)-5-{2-methyl-4-[6-(1-methylethoxy)naphthalen-2-yl]phenyl}-4,6-diazaspiro[2.4]hept-4-en-7-one]: in assay [5], the inhibition at 10 µM amounted to 93%. For the same molecule, the IC50 in assay [5] is 316 nM; in the assay with A2780 ovarian cells [1], 4.27 µM; in the assay on A2780 ovarian cells [2] it was roughly 200 nM; in assay [4] it was roughly 295 nM; in assay [6], 631 nM.
As for `O=C(Nc1cccc(-c2ccc(C3=NC4(CC4)C(=O)N3C[C@@H]3CCN(C(=O)C4CC4)C3)c(F)c2)c1)C1CC1` [compound 585, N-[4′-(6-{[(3R)-1-(Cyclopropylcarbonyl)pyrrolidin-3-yl]methyl}-7-oxo-4,6-diazaspiro[2.4]hept-4-en-5-yl)-3′-fluorobiphenyl-3-yl]cyclopropanecarboxamide], the inhibition at 10 µM in assay [5] was 99%. The IC50 was 112 nM in assay [5]; greater than 10 µM in the assay on A2780 ovarian cells [1]; 83.2 nM with A2780 ovarian cells [2]; 100 nM in assay [4]; 162 nM in assay [6].
Turning to `Cc1cc(-c2ccc3c(c2)c(CO)nn3C)ccc1C1=NC2(CC2)C(=O)N1CC1CN(C(=O)C2CC2)C1` [compound 586, 6-{[1-(Cyclopropylcarbonyl)azetidin-3-yl]methyl}-5-{4-[3-(hydroxymethyl)-1-methyl-1H-indazol-5-yl]-2-methylphenyl}-4,6-diazaspiro[2.4]hept-4-en-7-one], in assay [5], the inhibition at 10 µM stood at 93%. For the same molecule, the IC50 in assay [5] is 525 nM; in the assay with A2780 ovarian cells [1] it was greater than 10 µM; in the assay on A2780 ovarian cells [2], roughly 851 nM; in assay [4] it was 1020 nM; in assay [6], 1660 nM.
For the molecule `Cc1cc(-c2ccc3c(c2)c(Cl)nn3C)ccc1C1=NC2(CC2)C(=O)N1CC1CN(C(=O)C2CC2)C1` [compound 591, 5-[4-(3-Chloro-1-methyl-1H-indazol-5-yl)-2-methylphenyl]-6-{[1-(cyclopropylcarbonyl)azetidin-3-yl]methyl}-4,6-diazaspiro[2.4]hept-4-en-7-one], in assay [5], the inhibition at 10 µM was 93%. In addition, the IC50 in assay [5] is 195 nM; in the assay with A2780 ovarian cells [1], greater than 10 µM; in the assay with A2780 ovarian cells [2], roughly 347 nM; in assay [4] it was 372 nM; in assay [6], 1050 nM.
For the molecule `Cc1cc(-c2ccc3cc(C)c(Cl)nc3c2)ccc1C1=NC2(CC2)C(=O)N1CC1CN(C(=O)C2(C)CC2)C1` [compound 596], in assay [5], the inhibition at 10 µM is 102%. The IC50 in assay [5] is 186 nM; in the assay with A2780 ovarian cells [1], 6.31 µM; in the assay with A2780 ovarian cells [2], 457 nM; in assay [4], roughly 759 nM; in assay [6] it was 589 nM.
For the molecule `COC(=O)N1CC2(C1)N=C(c1ccc(-c3ccc4c(cnn4C)c3)cc1)N(C[C@@H]1CCN(C(=O)C3CC3)C1)C2=O` [compound 737, Methyl 7-{[(3R)-1-(cyclopropylcarbonyl)pyrrolidin-3-yl]methyl}-6-[4-(1-methyl-1H-indazol-5-yl)phenyl]-8-oxo-2,5,7-triazaspiro[3.4]oct-5-ene-2-carboxylate], the results for the IC50 in assay [3] and in assay [4] were roughly 3720 nM and 708 nM, respectively.
Consider `COCCN1CCC2(CC1)N=C(c1ccc(-c3ccc4occc4c3)cc1)N(C[C@@H]1CCN(C(=O)C3CC3)C1)C2=O` [compound 749, 2-[4-(1-Benzofurann-5-yl)phenyl]-3-{[(3R)-1-(cyclopropylcarbonyl)pyrrolidin-3-yl]methyl}-8-(2-methoxyethyl)-1,3,8-triazaspiro[4.5]dec-1-en-4-one], for which the inhibition at 10 µM in assay [5] worked out at 97%. For the same molecule, the IC50 is 138 nM in assay [5]; greater than 10 µM in the assay with A2780 ovarian cells [1]; 1550 nM in the assay on A2780 ovarian cells [2]; 759 nM in assay [4]; 603 nM in assay [6].
